Legend:
[1] = molecular target: T1, CCK receptor (brain, cerebral cortex) (Cavia porcellus, UniProt H0VZC5); assay: CCK Receptor Binding (Brain), 125I-CCK-33; details: inhibition of 125I-CCK-33 binding, guinea pig cerebral cortex membranes, 25°C, 2 hours
T1 construct: Cerebral cortex was dissected and used as a receptor source; from tissue; host or cells: guinea pig cerebral cortex membranes
Method: 2. CCK Receptor Binding (Brain)
CCK-33 was radiolabeled and the binding was performed according to the description for the pancreas method with modifications according to Saito et al., J. Neurochem. 37:483-490, 1981.
Male Hartley guinea pigs (300-500g) were sacrificed by decapitation and the brains were removed and placed in ice-cold 50 mM, Tris HCl plus 7.58 g/l Trizma-7.4 (ph 7.4 at 25°C). Cerebral cortex was dissected and used as a receptor source. Each gram of fresh guinea pig brain tissue was homogenized in 10 ml of Tris/Trizma buffer with a Brinkman polytron PT-10. The homogenates were centrifuged at 42,000 g for 15 minutes. Pellets were resuspended in Tris Buffer, centrifuged as above and resuspended in 200 volumes of binding assay buffer (10 mM N-2-hydroxyethyl-piperazine-N′-2-ethane sulfonic acid (HEPES), 5 mM MgCl₂, 0.25 mg/ml bacitracin, 1 mM ethylene glycol-bis-(β-aminoethylether-N,N′-tetraacetic acid) (EGTA), and 0.4% bovine serum albumin (BSA)). […] The supernatant was aspirated and discarded, pellets were counted with a Beckman gamma 5000.

CCK receptor (pancreas) = molecular target: T2, CCK receptor (pancreas) (Rattus norvegicus, UniProt P30551); assay: CCK Receptor Binding (Pancreas), 125I-CCK-33; details: inhibition of 125I-CCK-33 binding, rat pancreas membranes, 37°C, 30 minutes
T2 construct: The whole pancreas was dissected free of fat tissue and was homogenized; from tissue; host or cells: rat whole pancreas membrane homogenate
T2 sequence (P30551 1-444): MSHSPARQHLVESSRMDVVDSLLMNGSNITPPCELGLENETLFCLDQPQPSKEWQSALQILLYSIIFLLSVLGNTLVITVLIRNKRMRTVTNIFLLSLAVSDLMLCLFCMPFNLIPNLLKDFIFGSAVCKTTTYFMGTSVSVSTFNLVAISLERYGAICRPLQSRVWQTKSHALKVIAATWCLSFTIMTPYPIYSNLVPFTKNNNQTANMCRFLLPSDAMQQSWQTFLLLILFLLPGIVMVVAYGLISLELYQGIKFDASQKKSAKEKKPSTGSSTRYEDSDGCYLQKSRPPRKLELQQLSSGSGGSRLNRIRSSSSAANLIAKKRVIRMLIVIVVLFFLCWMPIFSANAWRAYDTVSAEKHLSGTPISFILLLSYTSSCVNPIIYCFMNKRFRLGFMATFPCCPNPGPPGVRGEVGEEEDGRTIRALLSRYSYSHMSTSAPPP
Method: 1. CCK Receptor Binding (Pancreas)
CCK-33 was radiolabeled with ¹²⁵I-Bolton Hunter reagent (2000 Ci/mmole) as described by Sankara et al. (J. Biol. Chem. 254: 9349-9351, 1979). Receptor binding was performed according to Innis and Snyder (Proc. Natl. Acad. Sci. 77, 6917-6921, 1980) with the minor modification of adding the additional protease inhibitors, phenylmethane sulfonyl fluoride and o-phenanthroline. The latter two compounds have no effect on the ¹²⁵I-CCK receptor binding assay.
Male Sprague-Dawley rats (200-350g) were sacrificed by decapitation. The whole pancreas was dissected free of fat tissue and was homogenized in 20 volumes of ice-cold 50 mM, Tris HCl (pH 7.7 at 25°C) with a Brinkmann Polytron PT 10. The homogenates were centrifuged at 48,000 g for 10 min. Pellets were resuspended in Tris Buffer, centrifuged as above and resuspended in 200 volumes of binding assay buffer (50 mM Tris HCl, pH 7.7 at 25°C, 5 mM dithiothrietol, 0.1 mM bacitracin, 1.2 mM phenylmethane sulfonyl fluoride and 0.5 mM o-phenanthroline). […] The supernatant was aspirated and discarded, pellets were counted with a Beckman gamma 5000. […]

T1 sequence (H0VZC5 entry or part of it): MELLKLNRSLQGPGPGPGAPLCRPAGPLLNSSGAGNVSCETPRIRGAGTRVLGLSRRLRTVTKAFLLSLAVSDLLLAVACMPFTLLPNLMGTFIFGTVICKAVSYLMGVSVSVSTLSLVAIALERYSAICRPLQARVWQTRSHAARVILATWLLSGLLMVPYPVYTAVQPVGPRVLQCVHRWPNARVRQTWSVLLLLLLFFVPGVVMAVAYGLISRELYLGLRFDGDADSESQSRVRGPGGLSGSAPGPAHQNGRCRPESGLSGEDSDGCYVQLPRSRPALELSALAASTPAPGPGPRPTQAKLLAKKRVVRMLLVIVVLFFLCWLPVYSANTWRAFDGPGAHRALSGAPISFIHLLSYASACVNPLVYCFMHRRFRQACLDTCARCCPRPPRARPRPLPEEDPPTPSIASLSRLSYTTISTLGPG

## CN1C(=O)C(NC(=O)c2cc3cc(O)ccc3[nH]2)N=C(c2ccccc2)c2ccccc21 (centres unmarked) [Example 15, 1,3-Dihydro-3-(5-hydroxyindole-2-carbonylamino)-1-methyl-5-phenyl-2H-1,4-benzodiazepin-2-one]
[1]
  IC50: 0.91 µM
CCK receptor (pancreas)
  IC50: 0.0033 µM

Source: patent EP0490590A1, “New benzodiazepine analogs” (MERCK & CO. INC., priority 1990, dated 1992)
